Experimental data published in paper PMC12274739, “Differential substrate degradation by super-degron: EGFP in wild-type mouse cells, PD-1 requires CRBN humanization” (iScience, 2025).
Read-outs that look alike come from different tables or passages of the source.

Columns and labels:
SD-EGFP (N-terminal SD) [1] = target: SD-EGFP (N-terminal SD) (Aequorea victoria, UniProt P42212, F64L/H231L/S65T); assay type: cell-based, mouse; details: transient, 24 h; for DC50: read-out: DC50, SD-EGFP
SD-EGFP (N-terminal SD) [2] = assay type: cell-based, mouse; details: Crbn+/I391V mESCs (h/mCRBN), transient, 24 h
EGFP-SD = experiment: Degradation of stably expressed EGFP-SD in human cell lines (hESCs, HEK293, Jurkat); assay type: cell-based; details: for bottom vs top, EGFP-SD: IBR up to 1 μM
SD-tagged EGFP = experiment: Degradation of SD-tagged EGFP in Crbn−/− (CRBN-KO) mESCs; assay type: cell-based, mouse; details: IBR up to 1 μM, 24 h
PD-1-SD = experiment: Exogenous PD-1-SD degradation in mESCs; assay type: cell-based, mouse
Method: The dotted lines show an isotype control without IBR. […] The dotted lines show an isotype control without IBR. […] The black lines show isotype control without IBR. […] Red lines show the boundary between positive and negative. […] (B–J) IBR or solvent (−) was added to cultured splenocytes (B–G) or mESCs (H–J). […] The concentration is 0.1 μM in the rightmost bar in each group, and the left neighbor is a step dilution of one-tenth. Intensities of anti-PD-1-FITC on CD4^+ and CD8^+ T cells were measured by flow cytometry, and the geometric means of fluorescence intensities (MFI) were calculated. The MFI of the isotype control of anti-PD-1-FITC was subtracted from each MFI of anti-PD-1-FITC. The dots indicate the results of the experiment for each of the three samples from different individuals.
To determine whether the same phenomenon occurs in non-T cells, exogenous PD-1 degradation was examined in mESCs transfected with PD-1-SD expression vectors (Figures 6H–6J and S6E). […] We hypothesized that the degradation efficiency of membrane-localized proteins might be reduced in mouse-type CRBNs. Therefore, we expressed EGFP-SDs with membrane-localized peptides attached to their N-termini in mESCs and added IBR. The degradation efficiency of EGFP-SD with membrane-localization peptide[32] […] Therefore, Pdcd1^SD/SD/Crbn^I391V/I391V mice were used for further analyses.

[3] = tested on: CD8+ and CD4+ T cells infiltrating the MC-38 microenvironment; experiment: Markers on T cells from MC-38 tumor microenvironment, flow cytometry day 9; assay type: in vivo, mouse
Method: Data are represented as mean ± standard error (SEM). The same experiment was repeated twice to confirm reproducibility. p-values were determined by two-way ANOVA multiple comparisons. ∗∗∗∗p < 0.0001 and ∗p = 0.0267. […] Data are represented as mean ± SEM. The same experiment was repeated twice to confirm reproducibility. p-values were determined by two-way ANOVA multiple comparisons. ∗∗∗∗p < 0.0001, ∗∗∗p = 0.0005, ∗∗p = 0.0067. […] Ratio of PD-1 positive cells and mean fluorescence intensity (MFI) of PD-1 (D), TIM-3 (E), and LAG-3 (F) on CD8^+ and CD4^+ T cells isolated from tumor microenvironments 9 days after the initiation of treatment are shown. Fluorescence intensity of each molecule was measured by flow cytometry, and the geometric MIFs of marker-positive cells were calculated. The data in two experiments were compiled. p-values were determined by the Brown-Forsythe and Welch ANOVA test. Different letters indicate statistically significant differences between groups (p < 0.05). Boxplots: hinges, 25th and 75th percentiles; middle line, median; whiskers, minimum to maximum value.
Next, the effects of SD-induced PD-1 reduction were compared with those of anti-PD-1 antibody treatment in vivo. […] CD3^+ T cells infiltrating the MC-38 microenvironment were analyzed on day 9 of treatment before the MC-38 tumor masses had shrunk with treatment and no longer provided sufficient T cells for FACS analyses.
Subsequently, we analyzed the proportion of exhaustion and activation marker-positive cells in each experimental group, as well as the expression levels of each marker in the marker-positive cells.
P-values were determined by one-way ANOVA with Tukey’s multiple comparisons. IBR: IBR-treated.
Samples are the same as Figure 7D. CrbnI391V/I391V mice were used for the experiments. Only PD-1 genotypes were shown in D. Pdcd1+/+/CrbnI391V/I391V control Ab: n = 11, Pdcd1+/+/CrbnI391V/I391V […]
E Expression analyses of PD-1, TIM-3, LAG-3, TIGIT and CX3CR1 on T cells by flow cytometry.
Cells in microenvironments were sorted by indicated gates. Dotted lines indicate isotype control. […]
PD-1 treatment. […] Different letters indicate statistically significant differences between groups (p < 0.05). Box plots: hinges, 25th and 75th percentiles; middle line, median; whiskers, minimum to maximum value.

wild-type mESCs = experiment: Proteome assay in wild-type mESCs with IBR; assay type: cell-based, mouse
From the text: Only SD was able to efficiently degrade EGFP even in the wild-type mouse cell lines. IKZF1/3 and several neo-substrates for CRBN were degraded in human cells but not in mouse cells, most likely because of the different amino acids in CRBN. However, the combination of SD and IBR or MZG degraded target proteins in both mouse and human cells. […] These 17 proteins are suspected to be novel substrates (data not shown). […] Moreover, general thalidomide analogs and CRBN have no neo-substrates in mouse cell lines.[25]

[4] = design: method as in PMID 31125896; details: BALB/c mice, oral; cited from earlier work
[5] = tested on: mouse PD-1-mCherry-Sall4 tag; assay type: cell-based, human; details: Jurkat, 24 h
[6] = cited from earlier work

O=C1CC[C@H](N2Cc3c(OCc4ccc(CN5CCOCC5)cc4)cccc3C2=O)C(=O)N1 [IBR, iberdomide]
Bottom, SD-EGFP (EGFP/mCherry MFI) (SD-EGFP (N-terminal SD) [1]; B6J-S1 mESCs): 0.09529 | bottom vs top, SD-EGFP (SD-EGFP (N-terminal SD) [1]; B6J-S1 mESCs): 0.24 | Bottom, SD-EGFP (EGFP/mCherry MFI) (SD-EGFP (N-terminal SD) [1]; Crbn+/+ mESCs (mCRBN)): 0.113 | bottom vs top, SD-EGFP (SD-EGFP (N-terminal SD) [1]; Crbn+/+ mESCs (mCRBN)): 0.25 | Bottom, SD-EGFP (EGFP/mCherry MFI) (SD-EGFP (N-terminal SD) [1]; CrbnI391V/I391V mESCs (hCRBN)): 0.04953 | bottom vs top, SD-EGFP (SD-EGFP (N-terminal SD) [1]; CrbnI391V/I391V mESCs (hCRBN)): 0.13 | DC50 (SD-EGFP (N-terminal SD) [1]; B6J-S1 mESCs): 1.82 nM | DC50 (SD-EGFP (N-terminal SD) [1]; Crbn+/+ mESCs (mCRBN)): 6.06 nM | DC50 (SD-EGFP (N-terminal SD) [1]; CrbnI391V/I391V mESCs (hCRBN)): 0.0637 nM | Bottom, SD-EGFP (EGFP/mCherry MFI) (SD-EGFP (N-terminal SD) [2]): 0.07126 | DC50 (SD-EGFP (N-terminal SD) [2]): 0.0784 nM | bottom vs top, SD-EGFP (SD-EGFP (N-terminal SD) [2]): 0.18 | Bottom, EGFP-SD (EGFP-SD; HEK293, stable): 0.01028 | DC50 (EGFP-SD; HEK293, stable): 5.45 pM | bottom vs top, EGFP-SD (EGFP-SD; HEK293, stable): 0.009 | Bottom, EGFP-SD (EGFP-SD; Jurkat, stable): 0.02414 | DC50 (EGFP-SD; Jurkat, stable): 11.8 pM | bottom vs top, EGFP-SD (EGFP-SD; Jurkat, stable): 0.024 | Bottom, EGFP-SD (EGFP-SD; human ESCs, stable): 0.007522 | DC50 (EGFP-SD; human ESCs, stable): 2.78 pM | bottom vs top, EGFP-SD (EGFP-SD; human ESCs, stable): 0.005 | degradation of SD-tagged EGFP (SD-tagged EGFP): did not occur | PD-1 degradation (PD-1-SD; Crbn+/+ mESCs transfected with PD-1-SD): barely degraded | PD-1 degradation (PD-1-SD; CrbnI391V/I391V mESCs transfected with PD-1-SD): degraded | TIM-3 in CD8+ T cells vs untreated ([3]; IBR: Pdcd1SD/SD/CrbnI391V/I391V, cell ratio and expression level, antibody: Pdcd1+/+/CrbnI391V/I391V, expression level): decreased | CX3CR1 in CD8+ T cells vs untreated ([3]; IBR: Pdcd1SD/SD/CrbnI391V/I391V, antibody: Pdcd1+/+/CrbnI391V/I391V, CX3CR1+ cell ratio): comparable between IBR-treated and untreated groups | LAG-3 and TIGIT in CD8+ T cells vs untreated ([3]; IBR: Pdcd1SD/SD/CrbnI391V/I391V, antibody: Pdcd1+/+/CrbnI391V/I391V, expression level): remained comparable | LAG-3 expression levels in CD4+ T cells ([3]; Pdcd1SD/SD/CrbnI391V/I391V): higher than those in the untreated group | PD-1 expression level in PD-1+ CD8+ T cells vs untreated ([3]; Pdcd1SD/SD/CrbnI391V/I391V, day 9): significant reduction | frequency / number of T cells infiltrating the MC-38 microenvironment ([3]; day 9 of treatment): did not differ | downregulation of 11 EGFP-bound candidate proteins (wild-type mESCs; exogenously expressed in mESCs): none of them were downregulated by IBR | number of proteins with reduced expression (wild-type mESCs; wild-type mESCs, proteome assay, data not shown): 17 | half-life (T1/2) [4]: 54 min | time of serum concentration peak [4]: 0.14 h

Nc1cccc2c1C(=O)N(C1CCC(=O)NC1=O)C2=O (stereo not shown) [POM, pomalidomide]
Bottom, PD-1 (FITC) ([5]; SALL4 tag, surface PD-1, no reagent = 1): 0.9333 | effect on protein levels ([5]; Sall4 tag): did not reduce protein levels | blood-brain barrier (BBB) passage [6]: passes through the BBB
